≈ marks a conversion by molar mass, not a printed value. Like-named read-outs stand apart in the source and are kept apart here.
Assays:
tubulin [1] = experiment: Inhibition of [3H]colchicine binding to tubulin; conditions: tubulin 1 μM, [3H]colchicine 5 μM, 10 min at 37 °C
DU145 (prostate cancer) = conditions: read-out: GI50 (μM ± SD) DU145, ref [14]; cited from earlier work
tubulin [2] = conditions: tubulin 1 μM, [3H]colchicine 5 μM, ref [14], cited from earlier work
[3] = tested on: human tumor cell lines (A549, KB, KBvin, DU145); experiment: SRB cytotoxicity, HTCL panel as a whole; type: cell-based; conditions: read-out: GI50 values across the HTCL panel, range over A549, KB
Aqueous solubility = type: physicochemical; conditions: pH 7.4, Solubility (μg/mL), mean ± SD of three experiments
tubulin [4] = experiment: Tubulin assembly inhibition; type: biochemical

Q: Which results are given for `COc1ccc(/C=C\c2cc(OC)c(OC)c(OC)c2)cc1O` [CA-4, combretastatin A-4]?
A: Inhibition of colchicine binding % Inhibition ± SD 1 μM (tubulin [1]; inhibitor 1 μM): 84 ± 0.3%; Inhibition of colchicine binding % Inhibition ± SD 5 μM (tubulin [1]; inhibitor 5 μM): 97 ± 0.4%

Q: Which GI50 (DU145 (prostate cancer)) does the source give for `COc1ccc2c(c1)CCCN2c1nc(Cl)nc2ccccc12` [Compound 1a] here?
A: The GI50 was 0.0015 ± 0.0003 µM.

Q: And the “Inhibition of colchicine binding % Inhibition ± SD 1 μM” value (tubulin [2]; inhibitor 1 μM)?
A: The value was 95 ± 0.7%.

Q: What about the “Inhibition of colchicine binding % Inhibition ± SD 5 μM” value (tubulin [2]; inhibitor 5 μM) of the same compound?
A: The value was 99 ± 0.6%.

Q: With `COc1ccc2c(c1)CCCN2c1nc(NCCCO)nc2ccccc12` [Compound 4a, N^1-(2′-(3-Hydroxypropyl)aminoquinazol-4′-yl)-6-methoxy-1,2,3,4-tetrahydro-quinoline] as the compound, how does the GI50 [3] read?
A: The GI50 was 16 to 20 nM.

Q: What about the solubility at 4 h (Aqueous solubility) of the same compound?
A: Its solubility at 4 h is 75 µg/mL (≈ 206 µM).

Q: For `COc1ccc2c(c1)CCCN2c1nc(NC2CCCC2)nc2ccccc12` [Compound 4c], which GI50 [3] is on record?
A: Its GI50 is 140 to 1420 nM.

Q: Which “inhibitory activity in the assembly assay” value (tubulin [4]) does the source give for `COc1ccc2c(c1)CCCN2c1cccc2cccnc12` [Compound 8d, 6-Methoxy-3,4-dihydro-2H-1,8′-biquinoline] here?
A: Its value is “did not display significant inhibitory activity”.
